What was measured:
Assay type in all cases: in vivo, NMRI nu/nu female mice
[1] = test system: NYH cells (small cell lung cancer); experiment: Tumour growth in nude mice inoculated with NYH cells; details: NYH tumours, 14 days
Method: (§1) The experiments were conducted with NMRI nu/nu female mice (M&B, Ry, Denmark) kept under semi-sterile conditions. The mice were 6 weeks old on arrival, and they were allowed to acclimatise for approximately 3 weeks before the experiments were initiated. The bedding was autoclaved at 121° C. for 20 minutes, the food was sterilised by irradiation, and the drinking water was filtered through a 0.2 μm filter. All handling of the mice was done in laminar flow benches.
Each experiment employed 40-60 mice which were inoculated in both flanks and left for the tumours to develop. Following that, the mice were divided into groups, each containing 10 mice and thus 18-20 tumors, according to the size of the tumour, i.e. large, medium or small. Unless stated otherwise all doses have been given daily.
(§2) The tumours were measured using digital callipers before treatment start (=baseline), twice weekly for the duration of the study, and at the end of the study. Tumour area (A) was calculated as the product of the two measured perpendicular diameters; A=d1×d2. For mice with only one tumour, the area of this tumour was calculated and used in the statistical analysis. For mice with two tumours, the average of the two tumour areas was calculated and used in the statistical analysis.
For each animal, an individual curve of the tumour areas observed during the study was plotted against time. The trend was an increasing growth rate of the tumours. In order to ensure an approximate linear correspondence between tumour data and time, the observations were transformed by taking the square root of the tumour areas, corresponding to tumour size in one dimension. As a summary measure of the repeated measurements of tumour areas during the study (tumour growth rate), the estimated slope of the individual curves of the square root transformed curves was used [Matthews, Br. Med. J., 300, 230-235, 1990]. The slope should be interpreted as a measure of the tumour growth rate and was estimated using linear regression analysis by time on the observations during the study. Within each group, the mean of the tumour growth rate was calculated.
The NYH cell line originates from a patient with small cell lung cancer. The cell line was obtained from Rigshospitalet, Copenhagen, Denmark.
The mice were inoculated with 1×10^7 NYH cells in 0.2 ml in each flank, and the tumours were left to grow for approximately 4 days. The duration of the dosing was 14 days.

[2] = test system: Colo 320 DM cells (human colon cancer); experiment: Tumour growth in nude mice inoculated with Colo 320 DM cells; details: Colo 320 DM tumours, 21 days, control 0.55
Method: as §1
Each experiment employed 40-60 mice which were inoculated in both flanks and left for the tumours to develop. Following that, the mice were divided into groups, each containing 10 mice and thus 18-20 tumors, according to the size of the tumour, i.e. large, medium or small. […]
as §2
For each animal, an individual curve of the tumour areas observed during the study was plotted against time. […] Within each group, the mean of the tumour growth rate was calculated. […]

[3] = test system: HT 1080 cells (human fibrosarcoma); experiment: Tumour growth in nude mice inoculated with HT 1080 cells; details: HT 1080 tumours, 14 days
Method: The experiments were conducted with NMRI nu/nu female mice (M&B, Ry, Denmark) kept under semi-sterile conditions. The mice were 6 weeks old on arrival, and they were allowed to acclimatise for approximately 3 weeks before the experiments were initiated. The bedding was autoclaved at 121° C. for 20 minutes, the food was sterilised by irradiation, and the drinking water was filtered through a 0.2 μm filter. All handling of the mice was done in laminar flow benches. Each experiment employed 40-60 mice which were inoculated in both flanks and left for the tumours to develop. Following that, the mice were divided into groups, each containing 10 mice and thus 18-20 tumors, according to the size of the tumour, i.e. large, medium or small. Unless stated otherwise all doses have been given daily. The tumours were measured using digital callipers before treatment start (=baseline), twice weekly for the duration of the study, and at the end of the study. Tumour area (A) was calculated as the product of the two measured perpendicular diameters; […] For mice with only one tumour, the area of this tumour was calculated and used in the statistical analysis. For mice with two tumours, the average of the two tumour areas was calculated and used in the statistical analysis. For each animal, an individual curve of the tumour areas observed during the study was plotted against time. The trend was an increasing growth rate of the tumours. In order to ensure an approximate linear correspondence between tumour data and time, the observations were transformed by taking the square root of the tumour areas, corresponding to tumour size in one dimension. As a summary measure of the repeated measurements of tumour areas during the study (tumour growth rate), the estimated slope of the individual curves of the square root transformed curves was used [Matthews, Br. Med. […] The slope should be interpreted as a measure of the tumour growth rate and was estimated using linear regression analysis by time on the observations during the study. Within each group, the mean of the tumour growth rate was calculated. The HT 1080 cell line originates from a patient with human fibrosarcoma, and it was obtained from ATCC. The mice were inoculated with 2×10^6 HT 1080 cells in 0.2 ml in each flank, and the tumours were left to grow for approximately 4 days.

O=P1(N(CCCl)CCCl)NCCCO1 (centres unmarked) [Cyclophosphamide]
Mean increment/day ([1]; cyclophosphamide 7 mg/kg p.o. daily, control 0.61): 0.40 mm/day

N#CNC(=Nc1ccncc1)NCCCCCCOc1ccc(Cl)cc1 [Compound A, N-cyano-N′-(6-(4-chlorophenoxy)hexyl)-N″(4-pyridyl)guanidine]
Mean increment/day ([1]; compound A 15 mg/kg p.o. daily, cisplatin experiment, control 0.90): 0.02 mm/day | Mean increment/day ([1]; compound A 15 mg/kg p.o. daily, cyclophosphamide experiment, control 0.61): 0.26 mm/day | Mean increment/day ([1]; compound A 15 mg/kg p.o. daily, etoposide experiment, control 0.67): 0.34 mm/day | Mean increment/day ([2]; compound A 50 mg/kg p.o. daily): 0.22 mm/day | Mean increment/day ([3]; compound A 50 mg/kg p.o. daily, TNP-470 experiment, control 0.73): 0.14 mm/day | Mean increment/day ([3]; compound A 50 mg/kg p.o. daily, etoposide experiment, control 0.45): 0.21 mm/day | Mean increment/day ([3]; compound A 50 mg/kg p.o. daily, paclitaxel experiment, control 0.67): 0.30 mm/day | Mean increment/day ([3]; compound A 50 mg/kg p.o. daily, seocalcitol experiment, control 0.98): 0.24 mm/day

N.N.[Cl][Pt][Cl] [Cisplatin]
Mean increment/day ([1]; cisplatin 5 mg/kg i.p. once weekly, control 0.90): 0.32 mm/day

C=C1/C(=C\C=C2/CCC[C@]3(C)[C@@H]([C@H](C)/C=C/C=C/C(O)(CC)CC)CC[C@@H]23)C[C@@H](O)C[C@@H]1O [Seocalcitol]
Mean increment/day ([3]; seocalcitol 2 μg/kg p.o. daily, control 0.98): 0.95 mm/day

COc1cc([C@@H]2c3cc4c(cc3[C@@H](O[C@@H]3O[C@@H]5CO[C@@H](C)O[C@H]5[C@H](O)[C@H]3O)[C@H]3COC(=O)[C@H]23)OCO4)cc(OC)c1O [Etoposide]
Mean increment/day ([1]; etoposide 10 mg/kg p.o. daily, control 0.67): 0.41 mm/day | Mean increment/day ([3]; etoposide 10 mg/kg p.o. daily, control 0.45): -0.01 mm/day

CC(=O)O[C@H]1C(=O)[C@@]2(C)[C@H]([C@H](OC(=O)c3ccccc3)[C@]3(O)C[C@H](OC(=O)[C@H](O)[C@@H](NC(=O)c4ccccc4)c4ccccc4)C(C)=C1C3(C)C)[C@]1(OC(C)=O)CO[C@@H]1C[C@@H]2O [Paclitaxel]
Mean increment/day ([3]; paclitaxel 1 mg/kg s.c. daily, control 0.67): 0.39 mm/day | Mean increment/day ([3]; paclitaxel 2 mg/kg s.c. daily, control 0.67): 0.15 mm/day

CO[C@@H]1[C@H](OC(=O)NC(=O)CCl)CC[C@]2(CO2)[C@H]1[C@@]1(C)O[C@@H]1CC=C(C)C [TNP-470]
Mean increment/day ([2]; TNP-470 9 mg/kg s.c. daily): 0.29 mm/day | Mean increment/day ([3]; TNP-470 9 mg/kg s.c. daily, control 0.73): 0.51 mm/day

Source: patent US20030045515A1, “Combination medicament for treatment of neoplastic diseases” (priority 2001, published 2003)
